Molecules are shown by their SMILES.

This is an account of results in patent US11802111B2, “Cyclobutyl amide monoacylglycerol lipase modulators” (Janssen Pharmaceutica NV, priority 2020, dated 2023).

This experiment deals with human MGL from HeLa cells (Homo sapiens (Human), UniProt Q99685). As to the kind of experiment: MGL in vitro activity assay ([glycerol-1,3-3H]-oleoyl glycerol hydrolysis, activated carbon filtration). In kind it is biochemical. The settings on record: 300 nM [Glycerol-1,3-3H]-oleoyl glycerol, one hour. In short, it runs like this: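 Activity measured as tritium in the flow-through after activated carbon filtration of a 1 h reaction containing 300 nM 3H-oleoyl glycerol, compound and HeLa-derived human MGL. Compounds screened at 10 μM; IC50 series start at an empirically chosen highest concentration.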
human MGL from HeLa cells, sequence (Q99685 whole entry): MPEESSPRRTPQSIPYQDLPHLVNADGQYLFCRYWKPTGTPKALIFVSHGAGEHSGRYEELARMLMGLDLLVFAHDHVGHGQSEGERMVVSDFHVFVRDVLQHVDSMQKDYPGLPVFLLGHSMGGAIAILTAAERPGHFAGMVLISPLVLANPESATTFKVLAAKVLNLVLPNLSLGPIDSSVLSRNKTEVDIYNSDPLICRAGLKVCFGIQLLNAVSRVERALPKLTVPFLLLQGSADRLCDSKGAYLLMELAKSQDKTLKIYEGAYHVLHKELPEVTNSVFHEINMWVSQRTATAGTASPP
Consider `CCc1cc(C2CCC3(CC2)CN(C(=O)[C@H]2C[C@@](C)(O)C2)C3)cc(C(F)(F)F)c1` [Example 146, (7-(3-Ethyl-5-(trifluoromethyl)phenyl)-2-azaspiro[3.5]nonan-2-yl)((1s,3s)-3-hydroxy-3-methylcyclobutyl)methanone], for which inhibition was half-maximal at 4.6 nM (IC50). On to `C[C@]1(O)C[C@@H](C(=O)N2CC3(CCC(c4ccc5c(c4)OCC5)C3)C2)C1` (mixture of isomers) [Example 323, (rac)-(6-(2,3-Dihydrobenzofuran-6-yl)-2-azaspiro[3.4]octan-2-yl)((1s,3s)-3-hydroxy-3-methylcyclobutyl)methanone], for which the IC50 is 166 nM. `CC(C)(C)c1ccc(C2CC3(C2)CN(C(=O)[C@H]2C[C@@](C)(O)C2)C3)cc1` [Example 2, (6-(4-(tert-Butyl)phenyl)-2-azaspiro[3.3]heptan-2-yl)((1s,3s)-3-hydroxy-3-methylcyclobutyl)methanone] gave an IC50 of 149 nM. For `Cc1cc(CC2CC3(C2)CN(C(=O)[C@H]2C[C@@](C)(O)C2)C3)ccc1C(F)(F)F` [Example 212, ((1s,3s)-3-Hydroxy-3-methylcyclobutyl)(6-(3-methyl-4-(trifluoromethyl)benzyl)-2-azaspiro[3.3]heptan-2-yl)methanone], the IC50 was determined as 0.3 nM. The result for `CC(C)(C)c1cccc(C2CCC3(CC2)CN(C(=O)[C@H]2C[C@@](C)(O)C2)C3)n1` [Example 116, (7-(6-(tert-Butyl)pyridin-2-yl)-2-azaspiro[3.5]nonan-2-yl)((1s,3s)-3-hydroxy-3-methylcyclobutyl)methanone] reads 4.4 nM; that for `C[C@]1(O)C[C@@H](C(=O)N2CC3(CCC(Oc4cccc(C5CC5)c4)CC3)C2)C1` [Example 264, (7-(3-Cyclopropylphenoxy)-2-azaspiro[3.5]nonan-2-yl)((1s,3s)-3-hydroxy-3-methylcyclobutyl)methanone], 32 nM.

The molecule `CC(C)(C)c1cccc(C2CCC3(C2)CN(C(=O)[C@H]2C[C@@](C)(O)C2)C3)c1` (mixture of isomers) [Example 43, (rac)-(6-(3-(tert-Butyl)phenyl)-2-azaspiro[3.4]octan-2-yl)((1s,3s)-3-hydroxy-3-methylcyclobutyl)methanone] came in with an IC50 of 6.9 nM.

Consider `CC(C)(C)c1cccc(C2CC3(C2)CN(C(=O)[C@H]2C[C@@](C)(O)C2)C3)n1` [Example 34, (6-(6-(tert-Butyl)pyridin-2-yl)-2-azaspiro[3.3]heptan-2-yl)((1s,3s)-3-hydroxy-3-methylcyclobutyl)methanone], for which inhibition was half-maximal at 25 nM (IC50). The result for `Cc1cc(C2CC3(C2)CN(C(=O)[C@H]2C[C@@](C)(O)C2)C3)cc(C(F)(F)F)c1` [Example 267, ((1s,3s)-3-Hydroxy-3-methylcyclobutyl)(6-(3-methyl-5-(trifluoromethyl)phenyl)-2-azaspiro[3.3]heptan-2-yl)methanone] reads 65 nM. The molecule `C[C@]1(O)C[C@@H](C(=O)N2CC3(CCC(c4cccn5nccc45)C3)C2)C1` (mixture of isomers) [Example 324, (rac)-((1s,3s)-3-Hydroxy-3-methylcyclobutyl)(6-(pyrazolo[1,5-c]pyridin-4-yl)-2-azaspiro[3.4]octan-2-yl)methanone] returned an IC50 of 835 nM. The result for `C[C@]1(O)C[C@@H](C(=O)N2CC3(CCC(c4ccccc4)CC3)C2)C1` [Example 37, ((1s,3s)-3-Hydroxy-3-methylcyclobutyl)(7-phenyl-2-azaspiro[3.5]nonan-2-yl)methanone] reads 58 nM; that for `COc1cc(C)cc(OC2CCC3(CC2)CN(C(=O)[C@H]2C[C@@](C)(O)C2)C3)c1` [Example 407, ((1s,3s)-3-Hydroxy-3-methylcyclobutyl)(7-(3-methoxy-5-methylphenoxy)-2-azaspiro[3.5]nonan-2-yl)methanone], 143 nM. Take `C[C@]1(O)C[C@@H](C(=O)N2CC3(CCC(c4cc5n(n4)CCCC5)CC3)C2)C1` [Example 395, ((1s,3s)-3-Hydroxy-3-methylcyclobutyl)(7-(4,5,6,7-tetrahydropyrazolo[1,5-a]pyridin-2-yl)-2-azaspiro[3.5]nonan-2-yl)methanone]: the IC50 turned out to be 354 nM. `Cn1cnc2cc(C3CCC4(C3)CN(C(=O)[C@H]3C[C@@](C)(O)C3)C4)ccc21` (mixture of isomers) [Example 111, (rac)-((1s,3s)-3-Hydroxy-3-methylcyclobutyl)(6-(1-methyl-1H-benzo[d]imidazol-5-yl)-2-azaspiro[3.4]octan-2-yl)methanone] gave an IC50 of 949 nM.

`COc1ccc(CC2CC3(C2)CN(C(=O)[C@H]2C[C@@](C)(O)C2)C3)c(C(F)(F)F)c1` [Example 217, ((1s,3s)-3-Hydroxy-3-methylcyclobutyl)(6-(4-methoxy-2-(trifluoromethyl)benzyl)-2-azaspiro[3.3]heptan-2-yl)methanone] gave an IC50 of 3.5 nM. The result for `Cc1cccc(CC2CC3(C2)CN(C(=O)[C@H]2C[C@@](C)(O)C2)C3)c1C(F)(F)F` [Example 209, ((1s,3s)-3-Hydroxy-3-methylcyclobutyl)(6-(3-methyl-2-(trifluoromethyl)benzyl)-2-azaspiro[3.3]heptan-2-yl)methanone] reads 2.2 nM; that for `Cc1ccc(C2CCC3(CC2)CN(C(=O)[C@H]2C[C@@](C)(O)C2)C3)nc1C(C)C` [Example 373, ((1s,3s)-3-Hydroxy-3-methylcyclobutyl)(7-(6-isopropyl-5-methylpyridin-2-yl)-2-azaspiro[3.5]nonan-2-yl)methanone], 2.4 nM; that for `Cc1cc(C2CC2)ccc1C1CCC2(C1)CN(C(=O)[C@H]1C[C@@](C)(O)C1)C2` (mixture of isomers) [Example 75, (rac)-(6-(4-Cyclopropyl-2-methylphenyl)-2-azaspiro[3.4]octan-2-yl)((1s,3s)-3-hydroxy-3-methylcyclobutyl)methanone], 2.4 nM. The molecule `Cc1cn(C)c2nc(OC3CCC4(CC3)CN(C(=O)[C@H]3C[C@@](C)(O)C3)C4)ccc12` [Example 471, (7-((1,3-Dimethyl-1H-pyrrolo[2,3-b]pyridin-6-yl)oxy)-2-azaspiro[3.5]nonan-2-yl)((1s,3s)-3-hydroxy-3-methylcyclobutyl)methanone] displayed an IC50 of 2 nM. The result for `Cc1cc([C@H]2CCC3(C2)CN(C(=O)[C@H]2C[C@@](C)(O)C2)C3)ccc1OC(F)F` (stereo in doubt) [Example 74, ((*S)-6-(4-(Difluoromethoxy)-3-methylphenyl)-2-azaspiro[3.4]octan-2-yl)((1s,3*R)-3-hydroxy-3-methylcyclobutyl)methanone] reads 6.8 nM.

Regarding `Cc1ccc(C2CCC3(C2)CN(C(=O)[C@H]2C[C@@](C)(O)C2)C3)cc1Cl` (mixture of isomers) [Example 71, (rac)-(6-(3-Chloro-4-methylphenyl)-2-azaspiro[3.4]octan-2-yl)((1s,3s)-3-hydroxy-3-methylcyclobutyl)methanone], half-maximal inhibition (IC50) required 15 nM.

Consider `CC(C)(C)c1ccc(C2CCC3(CCN(C(=O)[C@H]4C[C@@](C)(O)C4)CC3)C2)cc1` (mixture of isomers) [Example 39, (rac)-(2-(4-(tert-Butyl)phenyl)-8-azaspiro[4.5]decan-8-yl)((1s,3s)-3-hydroxy-3-methylcyclobutyl)methanone], for which the midpoint of inhibition, the IC50, lay at 18 nM. On to `Cc1c(Cl)cccc1C1CCC2(C1)CN(C(=O)[C@H]1C[C@@](C)(O)C1)C2` (mixture of isomers) [Example 11, (rac)-(6-(3-Chloro-2-methylphenyl)-2-azaspiro[3.4]octan-2-yl)((1s,3s)-3-hydroxy-3-methylcyclobutyl)methanone], for which the IC50 amounted to 37 nM. The result for `Cc1nc(OC2CC3(C2)CN(C(=O)[C@H]2C[C@@](C)(O)C2)C3)ccc1C(F)(F)F` [Example 309, ((1s,3s)-3-Hydroxy-3-methylcyclobutyl)(6-((6-methyl-5-(trifluoromethyl)pyridin-2-yl)oxy)-2-azaspiro[3.3]heptan-2-yl)methanone] reads 130 nM. In the case of `Cc1cnc(OC2CCC3(CC2)CN(C(=O)[C@H]2C[C@@](C)(O)C2)C3)c(C)c1` [Example 430, (7-((3,5-Dimethylpyridin-2-yl)oxy)-2-azaspiro[3.5]nonan-2-yl)((1s,3s)-3-hydroxy-3-methylcyclobutyl)methanone], the midpoint of inhibition, the IC50, lay at 12 nM. The result for `Cc1cc(OC(F)F)ccc1C1CCC2(C1)CN(C(=O)[C@H]1C[C@@](C)(O)C1)C2` (mixture of isomers) [Example 83, (rac)-(6-(4-(Difluoromethoxy)-2-methylphenyl)-2-azaspiro[3.4]octan-2-yl)((1s,3s)-3-hydroxy-3-methylcyclobutyl)methanone] reads 25 nM.

Take `Cc1cc(Cl)ccc1OC1CCC2(CC1)CN(C(=O)[C@H]1C[C@@](C)(O)C1)C2` [Example 412, (7-(4-Chloro-2-methylphenoxy)-2-azaspiro[3.5]nonan-2-yl)((1s,3s)-3-hydroxy-3-methylcyclobutyl)methanone]: half-maximal inhibition (IC50) was put at 1.4 nM. The result for `C[C@]1(O)C[C@@H](C(=O)N2CC3(CC(Cc4cccc(C5CC5)c4)C3)C2)C1` [Example 218, (6-(3-Cyclopropylbenzyl)-2-azaspiro[3.3]heptan-2-yl)((1s,3s)-3-hydroxy-3-methylcyclobutyl)methanone] reads 6.3 nM; that for `Cc1ccc(C(F)(F)F)c(OC2CCC3(CC2)CN(C(=O)[C@H]2C[C@@](C)(O)C2)C3)n1` [Example 443, ((1s,3s)-3-Hydroxy-3-methylcyclobutyl)(7-((6-methyl-3-(trifluoromethyl)pyridin-2-yl)oxy)-2-azaspiro[3.5]nonan-2-yl)methanone], 17 nM.

With `COc1nc(OC2CCC3(CC2)CN(C(=O)[C@H]2C[C@@](C)(O)C2)C3)ccc1C(F)(F)F` [Example 458, ((1s,3s)-3-Hydroxy-3-methylcyclobutyl)(7-((6-methoxy-5-(trifluoromethyl)pyridin-2-yl)oxy)-2-azaspiro[3.5]nonan-2-yl)methanone], the IC50 stood at 0.55 nM.

As to `C[C@]1(O)C[C@@H](C(=O)N2CC3(CCC(c4ncn5c4CCCC5)C3)C2)C1` (mixture of isomers) [Example 330, (rac)-((1s,3s)-3-Hydroxy-3-methylcyclobutyl)(6-(5,6,7,8-tetrahydroimidazo[1,5-a]pyridin-1-yl)-2-azaspiro[3.4]octan-2-yl)methanone], the IC50 was 2380 nM.

The term IC50 denotes the point on the concentration scale where inhibition reaches its midpoint. A low value points to greater potency in that assay.
